From patent US20230085307A1, “PYRIDAZINONE COMPOUND AND HERBICIDE” (NISSAN CHEMICAL CORPORATION, priority 2019, published 2023)

How the values were obtained:
[1] = test system: lambsquarters; test: Test Example 4: herbicidal effect by soil treatment (Table 19, symbol O); type: in vivo, lambsquarters (Chenopodium album); conditions: amount of applied herbicide 320 g/ha
Method in brief: (§1)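 Applied as a water-diluted emulsion, the compound was sprayed onto soil covering newly sown seeds. Evaluation came three weeks after application, in a greenhouse held at 25° C. to 30° C.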

[2] = test system: chickweed; test: Test Example 5: herbicidal effect by foliage application, plastic box (Table 20, symbol P); type: in vivo, common chickweed (Stellaria media); conditions: foliage application after 14-day growth, evaluated three weeks after application
Method in brief: (§2)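 Sow seeds spot-wise in sterilized diluvial soil; cover with ~1.5 cm soil. Grow 14 days in greenhouse, 25° C. to 30° C. Spray foliage with emulsion diluted to predetermined amount. Rate effect after 3 weeks.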

[3] = test system: redroot pigweed; test: Test Example 4: herbicidal effect by soil treatment (Table 19, symbol N); type: in vivo, redroot pigweed (Amaranthus retroflexus); conditions: amount of applied herbicide 320 g/ha
Method in brief: as §1

[4] = test system: barnyard grass; test: Test Example 5: herbicidal effect by foliage application, plastic box (Table 20, symbol H); type: in vivo, barnyard grass (Echinochloa crus-galli); conditions: foliage application after 14-day growth, evaluated three weeks after application
Method in brief: as §2

[5] = test system: rice flat sedge; test: Test Example 3: herbicidal effect by foliage application, Wagner pot (Table 18, symbol E); type: in vivo, rice flat sedge (Cyperus iria); conditions: 320 g/ha
Method in brief: (§3)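 Plants were sown in alluvial soil held under 0.1–0.5 cm standing water and grown 14 days in a greenhouse at 25–30 °C. An emulsifiable formulation, water-diluted to the set dose, was then sprayed onto the foliage, and effects were scored three weeks later using previously defined criteria.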

[6] = test system: green foxtail; test: Test Example 5: herbicidal effect by foliage application, plastic box (Table 20, symbol G); type: in vivo, green foxtail (Setaria viridis); conditions: foliage application after 14-day growth, evaluated three weeks after application
Method in brief: as §2

[7] = test system: velvetleaf; test: Test Example 5: herbicidal effect by foliage application, plastic box (Table 20, symbol M); type: in vivo, velvetleaf (Abutilon theophrasti); conditions: foliage application after 14-day growth, evaluated three weeks after application
Method in brief: as §2

[8] = test system: redroot pigweed; test: Test Example 5: herbicidal effect by foliage application, plastic box (Table 20, symbol N); type: in vivo, redroot pigweed (Amaranthus retroflexus); conditions: foliage application after 14-day growth, evaluated three weeks after application
Method in brief: as §2

[9] = test system: green foxtail; test: Test Example 4: herbicidal effect by soil treatment (Table 19, symbol G); type: in vivo, green foxtail (Setaria viridis); conditions: amount of applied herbicide 320 g/ha
Method in brief: as §1

[10] = test system: wild oat; test: Test Example 5: herbicidal effect by foliage application, plastic box (Table 20, symbol I); type: in vivo, wild oat (Avena fatua); conditions: foliage application after 14-day growth, evaluated three weeks after application
Method in brief: as §2

[11] = test system: Chinese sprangletop; test: Test Example 3: herbicidal effect by foliage application, Wagner pot (Table 18, symbol D); type: in vivo, chinese sprangletop (Leptochloa chinensis); conditions: 320 g/ha
Method in brief: as §3

[12] = test system: chickweed; test: Test Example 4: herbicidal effect by soil treatment (Table 19, symbol P); type: in vivo, common chickweed (Stellaria media); conditions: amount of applied herbicide 320 g/ha
Method in brief: as §1

[13] = test system: velvetleaf; test: Test Example 4: herbicidal effect by soil treatment (Table 19, symbol M); type: in vivo, velvetleaf (Abutilon theophrasti); conditions: amount of applied herbicide 320 g/ha
Method in brief: as §1

[14] = test system: barnyard grass; test: Test Example 3: herbicidal effect by foliage application, Wagner pot (Table 18, symbol H); type: in vivo, barnyard grass (Echinochloa crus-galli); conditions: 320 g/ha
Method in brief: as §3

[15] = test system: wild oat; test: Test Example 4: herbicidal effect by soil treatment (Table 19, symbol I); type: in vivo, wild oat (Avena fatua); conditions: amount of applied herbicide 320 g/ha
Method in brief: as §1

[16] = test system: persian speedwell; test: Test Example 4: herbicidal effect by soil treatment (Table 19, symbol R); type: in vivo, Persian speedwell (Veronica persica); conditions: amount of applied herbicide 320 g/ha
Method in brief: as §1

[17] = test system: southern crabgrass; test: Test Example 5: herbicidal effect by foliage application, plastic box (Table 20, symbol F); type: in vivo, southern crabgrass (Digitaria ciliaris); conditions: foliage application after 14-day growth, evaluated three weeks after application
Method in brief: as §2

[18] = test system: blackgrass; test: Test Example 4: herbicidal effect by soil treatment (Table 19, symbol J); type: in vivo, blackgrass (Alopecurus myosuroides); conditions: amount of applied herbicide 320 g/ha
Method in brief: as §1

[19] = test system: Italian ryegrass; test: Test Example 4: herbicidal effect by soil treatment (Table 19, symbol K); type: in vivo, Italian ryegrass (Lolium multiflorum); conditions: amount of applied herbicide 320 g/ha
Method in brief: as §1

[20] = test system: windgrass; test: Test Example 5: herbicidal effect by foliage application, plastic box (Table 20, symbol L); type: in vivo, windgrass (Apera spica-venti); conditions: foliage application after 14-day growth, evaluated three weeks after application
Method in brief: as §2

[21] = test system: barnyard grass; test: Test Example 4: herbicidal effect by soil treatment (Table 19, symbol H); type: in vivo, barnyard grass (Echinochloa crus-galli); conditions: amount of applied herbicide 320 g/ha
Method in brief: as §1

[22] = test system: southern crabgrass; test: Test Example 4: herbicidal effect by soil treatment (Table 19, symbol F); type: in vivo, southern crabgrass (Digitaria ciliaris); conditions: amount of applied herbicide 320 g/ha
Method in brief: as §1

[23] = test system: persian speedwell; test: Test Example 5: herbicidal effect by foliage application, plastic box (Table 20, symbol R); type: in vivo, Persian speedwell (Veronica persica); conditions: foliage application after 14-day growth, evaluated three weeks after application
Method in brief: as §2

[24] = test system: blackgrass; test: Test Example 5: herbicidal effect by foliage application, plastic box (Table 20, symbol J); type: in vivo, blackgrass (Alopecurus myosuroides); conditions: foliage application after 14-day growth, evaluated three weeks after application
Method in brief: as §2

[25] = test system: lambsquarters; test: Test Example 5: herbicidal effect by foliage application, plastic box (Table 20, symbol O); type: in vivo, lambsquarters (Chenopodium album); conditions: foliage application after 14-day growth, evaluated three weeks after application
Method in brief: as §2

[26] = test system: Italian ryegrass; test: Test Example 5: herbicidal effect by foliage application, plastic box (Table 20, symbol K); type: in vivo, Italian ryegrass (Lolium multiflorum); conditions: foliage application after 14-day growth, evaluated three weeks after application
Method in brief: as §2

[27] = amount of applied herbicide 320 g/ha

Cc1nn(C)c(=O)c(-c2c(-c3ccc(C(F)(F)F)cc3)sc3c(F)cccc23)c1O [4-044]
Herbicidal effect by soil treatment, O: lambsquarters [1]: 0 (Herbicidal rate of 5% or less (almost no effect))
herbicidal effect on P: chickweed (evaluation grade 0-5) ([2]; 320 g/ha): 5 (Herbicidal rate of 90% or more (almost completely withered))
Herbicidal effect by soil treatment, N: redroot pigweed [3]: 0 (Herbicidal rate of 5% or less (almost no effect))
herbicidal effect on H: barnyard grass (evaluation grade 0-5) ([4]; 320 g/ha): 2 (Herbicidal rate of 20% or more and less than 40%)
herbicidal effect on rice flat sedge (E) [5]: 5 (Herbicidal rate of 90% or more (almost completely withered))
herbicidal effect on G: green foxtail (evaluation grade 0-5) ([6]; 320 g/ha): 1 (Herbicidal rate of 5% or more and less than 20%)
herbicidal effect on M: velvetleaf (evaluation grade 0-5) ([7]; 320 g/ha): 3 (Herbicidal rate of 40% or more and less than 70%)
herbicidal effect on N: redroot pigweed (evaluation grade 0-5) ([8]; 320 g/ha): 4 (Herbicidal rate of 70% or more and less than 90%)
Herbicidal effect by soil treatment, G: green foxtail [9]: 0 (Herbicidal rate of 5% or less (almost no effect))
herbicidal effect on I: wild oat (evaluation grade 0-5) ([10]; 320 g/ha): 0 (Herbicidal rate of 5% or less (almost no effect))
herbicidal effect on Chinese sprangletop (D) [11]: 5 (Herbicidal rate of 90% or more (almost completely withered))
Herbicidal effect by soil treatment, P: chickweed [12]: 1 (Herbicidal rate of 5% or more and less than 20%)
Herbicidal effect by soil treatment, M: velvetleaf [13]: 0 (Herbicidal rate of 5% or less (almost no effect))
herbicidal effect on barnyard grass (H) [14]: 5 (Herbicidal rate of 90% or more (almost completely withered))
Herbicidal effect by soil treatment, I: wild oat [15]: 0 (Herbicidal rate of 5% or less (almost no effect))
Herbicidal effect by soil treatment, R: persian speedwell [16]: 3 (Herbicidal rate of 40% or more and less than 70%)
herbicidal effect on F: southern crabgrass (evaluation grade 0-5) ([17]; 320 g/ha): 0 (Herbicidal rate of 5% or less (almost no effect))
Herbicidal effect by soil treatment, J: blackgrass [18]: 0 (Herbicidal rate of 5% or less (almost no effect))
Herbicidal effect by soil treatment, K: Italian ryegrass [19]: 0 (Herbicidal rate of 5% or less (almost no effect))
herbicidal effect on L: windgrass (evaluation grade 0-5) ([20]; 320 g/ha): 5 (Herbicidal rate of 90% or more (almost completely withered))
Herbicidal effect by soil treatment, H: barnyard grass [21]: 0 (Herbicidal rate of 5% or less (almost no effect))
Herbicidal effect by soil treatment, F: southern crabgrass [22]: 0 (Herbicidal rate of 5% or less (almost no effect))
herbicidal effect on R: persian speedwell (evaluation grade 0-5) ([23]; 320 g/ha): 5 (Herbicidal rate of 90% or more (almost completely withered))
herbicidal effect on J: blackgrass (evaluation grade 0-5) ([24]; 320 g/ha): 0 (Herbicidal rate of 5% or less (almost no effect))
herbicidal effect on O: lambsquarters (evaluation grade 0-5) ([25]; 320 g/ha): 3 (Herbicidal rate of 40% or more and less than 70%)
herbicidal effect on K: Italian ryegrass (evaluation grade 0-5) ([26]; 320 g/ha): 4 (Herbicidal rate of 70% or more and less than 90%)

COc1cc(F)ccc1-c1sc2cc(F)c(F)cc2c1-c1c(O)c(C)nn(C)c1=O [5-029]
O: lambsquarters, herbicidal effect grade [1]: 5 (Herbicidal rate of 90% or more (almost completely withered))
Herbicidal effect by foliage application, P: chickweed [2, 27]: 5 (Herbicidal rate of 90% or more (almost completely withered))
N: redroot pigweed, herbicidal effect grade [3]: 5 (Herbicidal rate of 90% or more (almost completely withered))
Herbicidal effect by foliage application, H: barnyard grass [4, 27]: 5 (Herbicidal rate of 90% or more (almost completely withered))
herbicidal effect on rice flat sedge (E) [5]: 5 (Herbicidal rate of 90% or more (almost completely withered))
Herbicidal effect by foliage application, G: green foxtail [6, 27]: 5 (Herbicidal rate of 90% or more (almost completely withered))
Herbicidal effect by foliage application, M: velvetleaf [7, 27]: 5 (Herbicidal rate of 90% or more (almost completely withered))
Herbicidal effect by foliage application, N: redroot pigweed [8, 27]: 5 (Herbicidal rate of 90% or more (almost completely withered))
G: green foxtail, herbicidal effect grade [9]: 3 (Herbicidal rate of 40% or more and less than 70%)
Herbicidal effect by foliage application, I: wild oat [10, 27]: 4 (Herbicidal rate of 70% or more and less than 90%)
herbicidal effect on Chinese sprangletop (D) [11]: 4 (Herbicidal rate of 70% or more and less than 90%)
P: chickweed, herbicidal effect grade [12]: 3 (Herbicidal rate of 40% or more and less than 70%)
M: velvetleaf, herbicidal effect grade [13]: 3 (Herbicidal rate of 40% or more and less than 70%)
herbicidal effect on barnyard grass (H) [14]: 4 (Herbicidal rate of 70% or more and less than 90%)
I: wild oat, herbicidal effect grade [15]: 2 (Herbicidal rate of 20% or more and less than 40%)
R: persian speedwell, herbicidal effect grade [16]: 3 (Herbicidal rate of 40% or more and less than 70%)
Herbicidal effect by foliage application, F: southern crabgrass [17, 27]: 3 (Herbicidal rate of 40% or more and less than 70%)
J: blackgrass, herbicidal effect grade [18]: 4 (Herbicidal rate of 70% or more and less than 90%)
K: Italian ryegrass, herbicidal effect grade [19]: 1 (Herbicidal rate of 5% or more and less than 20%)
Herbicidal effect by foliage application, L: windgrass [20, 27]: 5 (Herbicidal rate of 90% or more (almost completely withered))
H: barnyard grass, herbicidal effect grade [21]: 0 (Herbicidal rate of 5% or less (almost no effect))
F: southern crabgrass, herbicidal effect grade [22]: 0 (Herbicidal rate of 5% or less (almost no effect))
Herbicidal effect by foliage application, R: persian speedwell [23, 27]: 5 (Herbicidal rate of 90% or more (almost completely withered))
Herbicidal effect by foliage application, J: blackgrass [24, 27]: 4 (Herbicidal rate of 70% or more and less than 90%)
Herbicidal effect by foliage application, O: lambsquarters [25, 27]: 5 (Herbicidal rate of 90% or more (almost completely withered))
Herbicidal effect by foliage application, K: Italian ryegrass [26, 27]: 4 (Herbicidal rate of 70% or more and less than 90%)
